Patent publication US6593306B1, “Methods for modulation and inhibition of telomerase” (Board of Regents, The University of Texas Systems, priority 1995, dated 2003)
“And” between values parts separate entries of the source, which are not always exact repeats. Identical values can stand only once.

What was measured:
Assay type in all cases: biochemical
[1] = target: T1, human 293 cell telomerase (Homo sapiens, UniProt O14746); test: Modified telomerase assay (32P-dATP as radiolabeled substrate)
T1 construct: with 20 μl of S100 enzyme extract; endogenous in cells; host or cells: 293 cells (transformed human embryonic kidney), S100 extract
Description: (§1) Telomerase was prepared from transformed human embryonic kidney 293 cell line. Human embryonic kidney 293 cells were grown in Joklik's modified MEM niedium (Sigma, St Louis, Mo.) supplemented with 5% fetal bovine serum at 37° C. in a humidified atmosphere with 5% CO2. The cells were subcultured at 1-2×10^5 cells/ml twice a week. When the cells grew to approximately 1×10^6 cells/ml, the cells (˜2×10^9 cells) were centrifuged and transferred into polypropylene centrifuge (50 ml) tubes and kept on ice. The cells were then centrifuged in a (Beckman GS-6R) centrifuge at 1200 RPM for 10 minutes at 4° C., and resuspended in PBS. The washed cells were resuspended in 15 ml Hypobuffer Mix (10 mM HEPES, pH 8.0, 3 mM KCl, 1 mM MgCl2, 1 mM dithiothreitol, 1 μM leupeptin, 0.1 mM PMSF, 10 μM pepstatin, 0.83 μg/ml chymostatin, 0.83 μg/ml antipain, and 43.2 units/ml RNase Guard) and centrifuged. The cell pellets were resuspended in 0.75×volumes Hypobuffer [Hypobuffer Mix+40 units/ml RNase Guard (Pharmacia, N.J.) to allow the cells to swell. The cell suspensions were homogenized to allow the telomerase to “leak” into the cytosolic fraction. The lysate was then poured into new, autoclaved, 3 ml polyallomer ultracentrifuge tubes and centrifuged at 100,000×g for 1 hour at 4° C. A top lipid layer was carefully removed and discarded, and the supernatant was collected. 1/50 of the volume of 5 M NaCl was added to the clear supernatant fluid to achieve a final concentration of 0.1 M. Sterile glycerol was added until the final glycerol concentration was 20%. The enzyme solution was aliquoted into Eppendorf tubes and quickly frozen in liquid nitrogen and stored at −70° C.
In the conventional telomerase assay, the concentrations of both non-radiolabeled nucleotides, dATP and dTTP, are 1 mM, and the concentration of the radiolabeled [^32P]dGTP is 1.56 μM. Because of the high concentration of dATP and dTTP, the standard assay may not be suitable for determining the potential telomerase inhibition of any “Adenine or Thymine” analogs. […] All other chemicals and reaction conditions are identical to the conventional assay.

human cancer telomerase [2] = target: T2, human cancer telomerase (Homo sapiens, UniProt O14746); test: Nucleoside triphosphate as telomerase substrate, dATP replaced in conventional reaction; details: for Substrate of 293 Telomerase: dATP analogs
T2 construct: endogenous in cells; host or cells: human cancer cells
Description: As described in Section 2, telomerase catalyzes the incorporation of dATP, dTTP and [α-^32P]dGTP into a (TTAGGG)3 primer. In order to determine whether dATP analog can be incorporated into telomere, native dATP in the standard telomerase reaction is replaced with various concentrations of dATP analogs. Following the reaction, telomeric products are isolated and analyzed as described in Section 2. Similarly, native dTTP in the standard telomerase reaction can be replaced by a structurally modified dTTP analog to test whether the dTTP analog can be used as a telomerase substrate.

[3] = target: T1, human 293 cell telomerase; test: Conventional telomerase assay (32P-dGTP as radiolabel substrate); details: for remaining activity at 125 µM: 0.125 mM; for remaining activity at 250 µM: 0.25 mM; for remaining activity at 500 µM: 0.5 mM; for remaining activity at 1000 µM: 1.0 mM; for remaining activity at 2000 µM: 2.0 mM; for Inhibition of 293 Telomerase, Conventional Assay *dGTP: up to 2 mM
Description: as §1
The assay is based on the ability of the telomerase enzyme in the S100 fractions to recognize an 18-base DNA primer with the DNA sequence (TTAGGG)3. DNA polymerization initiates from the 3′-OH group of the oligonucleotide. By reading from its complementary internal RNA template, telomerase adds a repeated set of 5′-TTAGGG-3′ to the original 18-base primer. Non-synchronous “starts” and “terminations” among the different enzyme complexes result in a degenerative set of different length DNA primers occurring in 6-base increments. Incorporation of [α-^32P]dGTP at the guanine positions of the 5′-TTAGGG-3′ sequence allows the newly synthesized DNA fragments to be visualized by autoradiography. The resulting image forms the characteristic “ladder” structure that is used to identify telomerase activity. The images are scanned using a phosphoimager or laser densitometer (Molecular Dynamics, Sunnyvale, Calif.). Comparisons of the total volumes under the corresponding peaks are used to quantitate the total amount of [α-^32P] incorporated in the primer extension reaction.
The telomerase assay was initiated by mixing 20 μl of 2×reaction mix (100 mM Tris-OAc, pH 8.5, 100 mM KOAc, 10 mM β-mercaptoethanol, 2 mM spermidine, 2 mM MgCl2, 2 mM dATP, 2 mM dTTP, 2 μM oligo primer, potential inhibitors of interest at the appropriate concentration, and 50 μCi [α^32-P]dGTP) with 20 μl of S100 enzyme extract. The reaction mixture was then incubated at 30° C. for 1 hour. The reaction was stopped by incubating sequentially with 50 μl of the stop solution (10 mM Tris pH 7.5, 20 mM EDTA, 0.1 mg/ml RNase A) and 50 μl of deproteinase solution (10 mM Tris pH 7.5, 0.5% SDS, 0.3 mg/ml Proteinase K). The mixture was extracted with 50% phenol/50% chloroform (v/v). The DNA was then precipitated by adding 2.5×volumes of cold EtOH and letting it stand overnight at −70° C. The DNAs were separated on an 8% polyacrylamide/7M urea denaturing gel at 1600 V for 1.5 hours. The gel was dried and exposed to Kodak XAR-5 film to gel in −70° C. Typical autoradiographic exposures required 3-14 days.

human telomerase = target: T3, human telomerase (Homo sapiens, UniProt O14746); test: Cell-free telomerase inhibition, conventional or modified assay not stated; details: for IC50: Summary values, assay variant not stated, read-out: IC50
T3 construct: telomerase in S100 extracts of transformed human fetal kidney tumor 293 cells (a processive telomerase); endogenous in cells; host or cells: human cells, (S100 extract)
Description: Selected nucleoside triphosphates were tested in one or both of the “conventional” or “modified” telomerase assays described in Methods using the human processive and the CHO non-processive telomerases. Initially, three chain-terminators were selected: 2′,3′-dideoxythymidine triphosphate (ddTTP), 3′-fluoro-2′,3′-dideoxythymidine triphosphate (F-ddTTP), and 3′-azido-2′-, 3′-dideoxythymidine triphosphate (AZ-ddTTP) as prototype agents to investigate whether they could inhibit telomerase activity. The three compounds are dTTP analogs without a 3′-OH group for subsequent chain elongation. They may either incorporate into the telomere sequence and terminate further chain elongation or compete directly with dTTP for the substrate binding site in the telomerase reaction. In either case, telomerase activity is inhibited.

human cancer telomerase [4] = target: T2, human cancer telomerase; test: Nucleoside triphosphate as telomerase substrate, dGTP replaced in modified reaction; details: modified assay; 1 mM dTTP, 3.12 μM [α-32P]dATP
[5] = [α-32P]dGTP 1.56 μM, TTP and dATP 1 mM

T2 sequence (O14746 whole entry): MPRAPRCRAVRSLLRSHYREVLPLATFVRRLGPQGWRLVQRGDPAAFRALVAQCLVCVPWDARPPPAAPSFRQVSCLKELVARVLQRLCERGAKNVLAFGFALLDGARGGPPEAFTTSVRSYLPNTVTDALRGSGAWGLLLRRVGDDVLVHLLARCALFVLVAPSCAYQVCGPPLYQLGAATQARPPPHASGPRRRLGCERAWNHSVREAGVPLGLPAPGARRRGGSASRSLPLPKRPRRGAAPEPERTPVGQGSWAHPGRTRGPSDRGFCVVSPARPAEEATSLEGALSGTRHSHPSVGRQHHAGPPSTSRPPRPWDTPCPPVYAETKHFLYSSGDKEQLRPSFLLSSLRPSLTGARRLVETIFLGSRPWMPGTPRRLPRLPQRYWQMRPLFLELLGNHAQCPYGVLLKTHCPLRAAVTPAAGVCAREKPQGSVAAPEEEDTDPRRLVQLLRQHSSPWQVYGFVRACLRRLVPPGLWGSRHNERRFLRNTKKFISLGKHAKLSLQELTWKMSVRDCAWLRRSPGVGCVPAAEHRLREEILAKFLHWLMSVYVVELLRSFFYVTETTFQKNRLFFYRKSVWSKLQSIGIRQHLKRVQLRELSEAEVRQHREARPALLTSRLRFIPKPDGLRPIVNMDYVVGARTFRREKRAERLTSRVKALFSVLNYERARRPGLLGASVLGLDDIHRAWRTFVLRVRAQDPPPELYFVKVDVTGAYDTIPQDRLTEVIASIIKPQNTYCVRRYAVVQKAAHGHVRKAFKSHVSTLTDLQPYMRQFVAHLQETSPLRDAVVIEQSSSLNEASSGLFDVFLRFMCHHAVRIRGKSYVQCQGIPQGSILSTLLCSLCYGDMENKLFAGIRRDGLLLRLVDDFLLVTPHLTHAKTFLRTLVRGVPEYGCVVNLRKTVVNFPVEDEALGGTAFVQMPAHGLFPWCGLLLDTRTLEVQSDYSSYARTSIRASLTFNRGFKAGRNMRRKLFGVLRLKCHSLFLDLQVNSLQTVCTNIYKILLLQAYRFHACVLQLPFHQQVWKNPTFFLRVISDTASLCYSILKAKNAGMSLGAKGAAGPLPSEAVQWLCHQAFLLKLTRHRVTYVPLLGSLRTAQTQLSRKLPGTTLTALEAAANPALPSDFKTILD
T2 sequence (O60832 whole entry partner): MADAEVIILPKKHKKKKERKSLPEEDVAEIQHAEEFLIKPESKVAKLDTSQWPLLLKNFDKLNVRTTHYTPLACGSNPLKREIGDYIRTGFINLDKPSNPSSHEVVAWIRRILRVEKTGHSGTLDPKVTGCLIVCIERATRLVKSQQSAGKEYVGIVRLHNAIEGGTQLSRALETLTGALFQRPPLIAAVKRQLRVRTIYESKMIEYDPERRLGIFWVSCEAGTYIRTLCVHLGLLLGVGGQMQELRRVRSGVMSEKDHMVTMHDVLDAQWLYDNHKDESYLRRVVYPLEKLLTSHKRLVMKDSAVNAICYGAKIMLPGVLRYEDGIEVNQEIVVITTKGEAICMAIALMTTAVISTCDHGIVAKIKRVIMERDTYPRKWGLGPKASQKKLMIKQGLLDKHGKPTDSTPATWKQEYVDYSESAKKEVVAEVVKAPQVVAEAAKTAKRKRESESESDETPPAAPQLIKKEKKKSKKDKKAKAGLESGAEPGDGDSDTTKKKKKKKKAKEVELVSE
T2 sequence (Q9NPE3 whole entry partner): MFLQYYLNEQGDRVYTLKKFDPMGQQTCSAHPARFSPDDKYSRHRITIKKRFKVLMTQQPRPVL
T2 sequence (Q9NX24 whole entry partner): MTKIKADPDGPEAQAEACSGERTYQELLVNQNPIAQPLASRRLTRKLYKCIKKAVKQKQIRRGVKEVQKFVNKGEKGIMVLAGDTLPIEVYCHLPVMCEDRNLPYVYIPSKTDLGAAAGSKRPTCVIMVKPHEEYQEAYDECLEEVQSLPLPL
T2 sequence (Q9NY12 whole entry partner): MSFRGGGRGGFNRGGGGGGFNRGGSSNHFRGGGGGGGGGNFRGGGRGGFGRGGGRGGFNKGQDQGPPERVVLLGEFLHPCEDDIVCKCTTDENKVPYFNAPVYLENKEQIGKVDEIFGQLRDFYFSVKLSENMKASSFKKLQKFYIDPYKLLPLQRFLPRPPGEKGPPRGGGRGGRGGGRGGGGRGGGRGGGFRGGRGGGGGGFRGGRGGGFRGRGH
T1 sequence (O14746 whole entry): as the sequence (O14746 whole entry) above
T1 sequence (O60832 whole entry partner): as the sequence (O60832 whole entry partner) above
T1 sequence (Q9NPE3 whole entry partner): as the sequence (Q9NPE3 whole entry partner) above
T1 sequence (Q9NX24 whole entry partner): as the sequence (Q9NX24 whole entry partner) above
T1 sequence (Q9NY12 whole entry partner): as the sequence (Q9NY12 whole entry partner) above
T3 sequence (O14746 whole entry): as the sequence (O14746 whole entry) above
T3 sequence (O60832 whole entry partner): as the sequence (O60832 whole entry partner) above
T3 sequence (Q9NPE3 whole entry partner): as the sequence (Q9NPE3 whole entry partner) above
T3 sequence (Q9NX24 whole entry partner): as the sequence (Q9NX24 whole entry partner) above
T3 sequence (Q9NY12 whole entry partner): as the sequence (Q9NY12 whole entry partner) above

With `Nc1ncnc2c1ncn2[C@H]1CC[C@@H](COP(=O)(O)OP(=O)(O)OP(=O)(O)O)O1` [NA007, 2′,3′-Dideoxyadenosine-5′-Triphosphate] the remaining activity at 125 µM ([1]; 0.125 mM, read-out: % of Control) was 0%, the remaining activity at 250 µM ([1]; 0.25 mM, read-out: % of Control) was 0% and the remaining activity at 500 µM ([1]; 0.5 mM, read-out: % of Control) was 0%. The remaining activity at 1000 µM ([1]; 1.0 mM, read-out: % of Control) was 0%, the remaining activity at 2000 µM ([1]; 2 mM, read-out: % of Control) was 0% and the “incorporation into telomeric ladders, replacing dATP” value (human cancer telomerase [2]; conventional assay, 0.125-2 mM tested) was “no apparent NA007 incorporation was detected”. The “Substrate of 293 Telomerase” value (human cancer telomerase [2]) was “No product formed using (TTAGGG)^3 primer”, the remaining activity at 125 µM ([3]; read-out: % of Control) was 118% and the remaining activity at 250 µM ([3]; read-out: % of Control) was 116%. The remaining activity at 500 µM ([3]; read-out: % of Control) was 141%, the remaining activity at 1000 µM ([3]; read-out: % of Control) was 126% and the remaining activity at 2000 µM ([3]; read-out: % of Control) was 133%. For the same compound, the “Inhibition of 293 Telomerase, Conventional Assay *dGTP” value (“Inhibition of 293 Telomerase” below) [3] was “No Inhibition (up to 2 mM)” and the “inhibition of human telomerase activity” value (human telomerase; 1 mM) was “inhibited”.

With `Nc1nc2c(ncn2[C@H]2C[C@H](O)[C@@H](COP(O)(=S)OP(=O)(O)OP(=O)(O)O)O2)c(=O)[nH]1` (stereo partly shown) [NA013, 2′-Deoxyguanosine-5′-O-(1-thiotriphosphate)] the “incorporation into telomeric ladders, replacing dGTP” value (human cancer telomerase [4]) was “incorporated”, the remaining activity at 125 µM ([3]; read-out: % of Control) was 75% and the remaining activity at 250 µM ([3]; read-out: % of Control) was 47%. For the same compound, the remaining activity at 500 µM ([3]; read-out: % of Control) was 0%, the remaining activity at 1000 µM ([3]; read-out: % of Control) was 0% and the remaining activity at 2000 µM ([3]; read-out: % of Control) was 0%. For the same compound, the IC50 ([3]; 293 cell telomerase) was < 125 µM, the “Inhibition of 293 Telomerase” value [3] was “concentration-dependent inhibition” and the IC50 (human telomerase) was 81.5 µM.

For `Nc1nc2c(ncn2[C@H]2CC[C@@H](COP(=O)(O)OP(=O)(O)OP(=O)(O)O)O2)c(=O)[nH]1` [NA020, 2′,3′-Dideoxyguanosine-5′-Triphosphate], the “incorporation into telomeric ladders, replacing dGTP” value (human cancer telomerase [4]) was “no apparent NA020 incorporation was detected”, the remaining activity at 12.5 µM ([3]; 0.0125 mM, read-out: % of Control) was 0% and the remaining activity at 25 µM ([3]; 0.025 mM, read-out: % of Control) was 0%. The remaining activity at 50 µM ([3]; 0.05 mM, read-out: % of Control) was 0%, the remaining activity at 100 µM ([3]; 0.1 mM, read-out: % of Control) was 0% and the remaining activity at 200 µM ([3]; 0.2 mM, read-out: % of Control) was 0%. The remaining activity at 500 µM ([3]; read-out: % of Control) was 0%, the remaining activity at 1000 µM ([3]; read-out: % of Control) was 0% and the IC50 [3, 5] was < 125 µM. For the same compound, the “concentration at which telomerase activity is completely inhibited” value ([3]; lowest concentration tested) was ≤ 12.5 µM.

`Nc1ncnc2c1ccn2[C@H]1C[C@H](O)[C@@H](COP(=O)(O)OP(=O)(O)OP(=O)(O)O)O1` [NA023, 7-Deaza-2′-Deoxyadenosine-5′-Triphosphate] showed a remaining activity at 1 µM ([1]; 1.0 μM, read-out: % of Control) of 69%, a remaining activity at 2.5 µM ([1]; 2.5 μM, read-out: % of Control) of 46% and a remaining activity at 5 µM ([1]; 5.0 μM, read-out: % of Control) of 57%. It also gave a remaining activity at 7.5 µM ([1]; 7.5 μM, read-out: % of Control) of 40%, a remaining activity at 10 µM ([1]; 10 μM, read-out: % of Control) of 23% and a remaining activity at 25 µM ([1]; 25 μM, read-out: % of Control) of 4%. For the same compound, the remaining activity at 50 µM ([1]; 50 μM, read-out: % of Control) was 0%, the remaining activity at 75 µM ([1]; 75 μM, read-out: % of Control) was 0% and the remaining activity at 100 µM ([1]; 100 μM, read-out: % of Control) was 0%. The IC50 ([1]; [α-32P]dATP 3.12 μM, TTP and dGTP 1 mM) was 8 µM, the “Inhibition of 293 cell telomerase, modified assay” value ([1]; competing radioactive nucleotide 3.12 μM [α32P]dATP) was “concentration-dependent inhibition” and the “Substrate of 293 Telomerase” value (human cancer telomerase [2]) was “Is a substrate Produces short telomere Substrate Inhibition”. The “concentration above which no telomerase activity was detected” value (human cancer telomerase [2]; dATP replaced, 1 mM TTP, 1.56 μM [α-32P]dGTP) was > 1.5 mM, the IC50 [3, 5] was 59 µM and < 100 µM and the “Inhibition of 293 Telomerase” value [3] was “concentration-dependent inhibition”. For the same compound, the IC50 (human telomerase) was 78.5 µM.
